According to US12011439B2, “Combination therapy using C—C chemokine receptor 4 (CCR4) antagonists and one or more immune checkpoint inhibitors” (CHEMOCENTRYX, INC., priority 2018, dated 2024):
pIC50: −log10 of the molar value.

How the values were obtained:
[1] = system: KCM cells; test: KCM orthotopic pancreatic tumor model; assay type: in vivo, mice
Source text: The subcutaneous CT26 colon cancer model and the orthotopic KCM pancreatic cancer model were used to assess the effects of a CCR4 inhibitor, Compound 1, in combination with anti-CTLA-4 antibody (BioXcell: anti-mouse CTLA-4 (Clone: 9H10), raised in Syrian Hamster, purified with protein G). CT26 cells were implanted into the flanks of 9 week female Balb/c mice. Mice were randomized into study groups based on the tumor sizes on day 6, and dosing of both Compound 1 and anti-CTLA-4 started on day 7. For the orthotopic pancreatic cancer model, KCM cells were implanted directly into the pancreas, and dosing of Compound 1 and anti-CTLA-4 also began on day 7. Compound 1 was dosed orally twice daily at 30 mg/kg, and anti-CTLA-4 was dosed IP on days 7, 11 and 15 at 100 μg/mouse.
As briefly described in Example 1, above, a KCM pancreatic cancer model was used to assess the effectiveness of a CCR4 inhibitor in combination with an anti-CTLA-4 antibody. The mice were broken into 4 groups (n=12 each group): isotype antibody+Vehicle; Isotype Antibody+Compound 1; anti-CTLA-4+Vehicle; anti-CTLA-4+Compound 1. The mice used were 7-8 week old C57BL/6 female mice. […]
After completion of the study, the tumor/pancreases weight for each group was measured. […]
Changes in suppressive immune cell populations were also measured at the completion of this study. […] Pancreas from sham-operated mice were processed and analyzed. […]

[2] = target: T1, mCCR4 (Mus musculus, UniProt P51680); test: 125I-CCL17 binding, mouse CCR4 cells; conditions: Mouse mCCR4-293 cells, buffer
T1 sequence (P51680 1-360): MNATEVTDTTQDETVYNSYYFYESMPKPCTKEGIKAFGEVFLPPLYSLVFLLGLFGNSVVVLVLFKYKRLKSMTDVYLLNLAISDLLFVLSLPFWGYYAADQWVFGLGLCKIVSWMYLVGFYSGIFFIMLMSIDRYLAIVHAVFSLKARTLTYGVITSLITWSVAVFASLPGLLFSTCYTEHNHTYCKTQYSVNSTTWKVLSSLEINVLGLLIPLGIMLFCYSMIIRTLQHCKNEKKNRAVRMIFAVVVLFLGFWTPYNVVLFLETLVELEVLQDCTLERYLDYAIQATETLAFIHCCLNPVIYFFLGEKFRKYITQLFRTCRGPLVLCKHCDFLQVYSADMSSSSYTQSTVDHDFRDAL

[3] = target: T2, CCR4 (Homo sapiens, UniProt P51679); test: 125I-CCL17 binding, human cells; conditions: buffer
T2 sequence (P51679 1-360): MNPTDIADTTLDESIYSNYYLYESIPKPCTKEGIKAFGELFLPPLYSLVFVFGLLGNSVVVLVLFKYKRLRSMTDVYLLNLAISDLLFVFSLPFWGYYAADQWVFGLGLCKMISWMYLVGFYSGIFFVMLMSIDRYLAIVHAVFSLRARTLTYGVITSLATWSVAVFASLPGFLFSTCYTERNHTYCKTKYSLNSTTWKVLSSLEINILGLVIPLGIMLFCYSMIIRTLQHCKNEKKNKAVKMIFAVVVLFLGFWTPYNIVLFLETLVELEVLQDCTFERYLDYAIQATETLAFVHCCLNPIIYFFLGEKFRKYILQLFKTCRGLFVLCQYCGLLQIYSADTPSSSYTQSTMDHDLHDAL

[4] = Plasma compound concentrations at trough in the KCM study; assay type: in vivo, mice; conditions: day 12, KCM model
[5] = Compound 1 selectivity panel, buffer IC50; assay type: cell-based; conditions: Receptor CCR12
Description: (§1) The selectivity of Compound 1 was tested by determining the IC50 value against a diverse panel of receptors, enzymes, and ion channels. […] See, Table 1.

[6] = target: T3, CCR7 (Homo sapiens, UniProt P32248); test: Compound 1 selectivity panel, buffer IC50; assay type: cell-based; conditions: Receptor CCR7
T3 sequence (P32248 25-378): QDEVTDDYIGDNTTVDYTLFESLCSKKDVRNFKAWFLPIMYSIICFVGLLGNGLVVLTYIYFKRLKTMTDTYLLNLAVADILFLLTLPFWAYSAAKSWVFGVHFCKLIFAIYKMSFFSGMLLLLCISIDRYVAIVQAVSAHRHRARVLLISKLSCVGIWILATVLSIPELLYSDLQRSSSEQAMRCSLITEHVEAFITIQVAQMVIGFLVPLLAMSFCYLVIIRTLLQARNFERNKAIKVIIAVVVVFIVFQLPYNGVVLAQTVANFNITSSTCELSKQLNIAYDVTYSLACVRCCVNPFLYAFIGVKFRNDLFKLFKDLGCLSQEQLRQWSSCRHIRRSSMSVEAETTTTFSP
Description: as §1

[7] = target: T4, CXCR3 (Homo sapiens, UniProt P49682); test: Compound 1 selectivity panel, buffer IC50; assay type: cell-based; conditions: Receptor CXCR3
T4 sequence (P49682 1-368): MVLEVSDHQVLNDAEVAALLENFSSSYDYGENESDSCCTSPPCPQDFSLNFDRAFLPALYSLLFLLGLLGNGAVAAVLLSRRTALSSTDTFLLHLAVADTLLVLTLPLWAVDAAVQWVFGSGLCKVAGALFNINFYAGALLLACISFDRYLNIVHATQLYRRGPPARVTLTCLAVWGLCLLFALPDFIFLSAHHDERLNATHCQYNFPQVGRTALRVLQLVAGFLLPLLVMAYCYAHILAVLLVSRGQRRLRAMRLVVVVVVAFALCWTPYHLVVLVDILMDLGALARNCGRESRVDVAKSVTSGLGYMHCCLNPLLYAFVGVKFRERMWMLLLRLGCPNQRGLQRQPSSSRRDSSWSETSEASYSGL
Description: as §1

[8] = target: T1, mCCR4; test: CCL22 chemotaxis, mouse CCR4 cells; assay type: cell-based; conditions: Mouse mCCR4-Baf3 cells
[9] = target: T2, CCR4; test: CCL22 chemotaxis, human cells; assay type: cell-based

pIC50 [2]: 7.57
pIC50 ([3]; Human CEM cells): 7.64
pIC50 ([3]; Human lymphocytes): 7.43
Plasma compound concentrations at trough [4]: Adequate compound levels
pIC50 [5]: < 5.00
pIC50 [6]: < 5.00
pIC50 [7]: < 5.00
Chemotaxis A2 ([8]; 100% serum): 60 nM
Chemotaxis A2 ([8]; buffer): 4 nM
Chemotaxis A2 ([9]; Human CEM cells, 100% serum): 20 nM
Chemotaxis A2 ([9]; Human CEM cells, buffer): 2 nM
Chemotaxis A2 ([9]; Human lymphocytes, 100% serum): 20 nM
Chemotaxis A2 ([9]; Human lymphocytes, buffer): 10 nM
SMILES: C[C@@H](Nc1cc(C2CCN([C@H]3CCCN(CCC(=O)O)C3)CC2)ccc1Cl)c1ccc(Cl)cc1Cl [Compound 1]
Spleen weight [1]: reduced
Tumor burden (tumor + pancreas weight) ([1]; Compound 1 bid, anti-CTLA-4 100 μg i.p.): significantly reduced tumor burden
